Data as given in patent US20100099774A1 (priority 2007, published 2010).

How the values were obtained:
Format in all cases: cell-based
Colleotrichum truncatum = settings: 63 ppm, 2% aqueous biomalt solution, 405 nm, 7 days after inoculation, Abbot's formula
[1] = system: Pseudocercosporella herpotrichoides W-Type; settings: 63 ppm
Septoria tritici = settings: 63 ppm
Corynespora cassiicola = settings: 63 ppm
[2] = system: Pseudocercosporella herpotrichoides R-Type; settings: 63 ppm
Leptosphaeria nodorum = settings: 63 ppm
Septoria glycines = settings: 63 ppm
Monographella nivalis = settings: 63 ppm
Rhynchosporium secalis = settings: 63 ppm
Pyricularia oryzae = settings: 63 ppm, 2% aqueous biomalt solution, 405 nm, 7 days after inoculation, Abbot's formula
Colleotrichum lagenarium = settings: 63 ppm, 2% aqueous biomalt solution, 405 nm, 7 days after inoculation, Abbot's formula
Phytophthora infestans = settings: 63 ppm, pea juice-based aqueous nutrient medium, 405 nm, 7 days after inoculation, Abbot's formula
Pyrenophora teres = settings: 63 ppm

CCN/C(=N\Nc1c(Cl)cc(C(F)(F)F)cc1Cl)C1(C)CC1(Cl)Cl (stereo not drawn) [compound I-2, N-Ethyl-2,2-dichloro-1-methylcyclopropane-carboxamide-2-(2,6-dichloro-α,α,α-trifluoro-p-tolyl)hydrazone]
Efficacy (Colleotrichum truncatum): 100%
Efficacy [1]: 100%
Efficacy (Septoria tritici): 100%
Efficacy (Corynespora cassiicola): 100%
Efficacy [2]: 100%
Efficacy (Leptosphaeria nodorum): 100%
Efficacy (Septoria glycines): 100%
Efficacy (Monographella nivalis): 100%
Efficacy (Rhynchosporium secalis): 100%
Efficacy (Pyricularia oryzae): 91%
Efficacy (Colleotrichum lagenarium): 89%
Efficacy (Phytophthora infestans): 100%
Efficacy (Pyrenophora teres): 96%
